Test results taken from ChEMBL document CHEMBL1806429, “Angiotensin-I-converting enzyme inhibitory peptides: Chemical feature based pharmacophore generation” (Eur J Med Chem, 2011).
Residues, ends and D or L forms follow the SMILES beside them.

Target: T1, Angiotensin-converting enzyme (Oryctolagus cuniculus, UniProt P12822)
T1 sequence (P12822 whole entry): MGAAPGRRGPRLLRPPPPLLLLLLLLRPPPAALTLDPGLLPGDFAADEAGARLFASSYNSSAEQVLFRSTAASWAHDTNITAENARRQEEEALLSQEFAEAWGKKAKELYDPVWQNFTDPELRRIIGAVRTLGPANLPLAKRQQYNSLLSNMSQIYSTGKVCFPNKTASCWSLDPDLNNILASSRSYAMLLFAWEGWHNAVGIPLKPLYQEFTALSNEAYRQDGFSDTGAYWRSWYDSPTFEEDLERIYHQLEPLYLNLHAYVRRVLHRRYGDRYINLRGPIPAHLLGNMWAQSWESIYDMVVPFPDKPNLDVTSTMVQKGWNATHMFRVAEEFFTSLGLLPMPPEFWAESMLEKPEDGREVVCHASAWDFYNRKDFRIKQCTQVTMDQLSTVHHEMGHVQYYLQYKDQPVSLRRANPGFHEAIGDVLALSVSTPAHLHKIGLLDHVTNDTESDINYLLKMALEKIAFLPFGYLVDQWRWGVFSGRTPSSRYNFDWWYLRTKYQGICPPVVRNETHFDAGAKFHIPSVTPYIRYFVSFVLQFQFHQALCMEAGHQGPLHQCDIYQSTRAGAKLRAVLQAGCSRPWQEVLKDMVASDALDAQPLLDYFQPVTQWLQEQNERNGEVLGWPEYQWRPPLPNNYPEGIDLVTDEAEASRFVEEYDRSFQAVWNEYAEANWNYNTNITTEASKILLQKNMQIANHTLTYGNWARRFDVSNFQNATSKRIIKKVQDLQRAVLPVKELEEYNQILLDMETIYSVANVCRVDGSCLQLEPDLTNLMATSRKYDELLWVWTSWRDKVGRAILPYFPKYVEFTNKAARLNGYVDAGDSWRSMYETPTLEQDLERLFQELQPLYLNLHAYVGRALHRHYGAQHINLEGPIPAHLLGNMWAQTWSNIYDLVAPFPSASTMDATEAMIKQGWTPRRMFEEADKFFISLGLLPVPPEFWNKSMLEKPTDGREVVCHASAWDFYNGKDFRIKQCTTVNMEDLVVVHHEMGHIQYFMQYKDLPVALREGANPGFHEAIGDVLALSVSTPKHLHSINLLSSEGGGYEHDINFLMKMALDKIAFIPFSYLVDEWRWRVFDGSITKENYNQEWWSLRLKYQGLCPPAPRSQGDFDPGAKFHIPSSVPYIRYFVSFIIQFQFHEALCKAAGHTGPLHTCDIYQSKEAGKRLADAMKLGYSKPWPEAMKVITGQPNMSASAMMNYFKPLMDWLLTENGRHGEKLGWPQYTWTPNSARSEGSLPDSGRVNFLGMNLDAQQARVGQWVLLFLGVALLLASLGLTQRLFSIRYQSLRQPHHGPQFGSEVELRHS
Test: Inhibition of rabbit lung ACE preincubated for 5 mins by spectrophotometric assay

SMILES	IC50 [µM]
NCC(=O)N[C@@H](CCC(=O)O)C(=O)O (H-Gly-Glu-OH)	5400
CC(C)C[C@H](N)C(=O)N[C@@H](C)C(=O)N1CCC[C@H]1C(=O)O (H-Leu-Ala-Pro-OH)	0.7
CC(C)[C@H](NC(=O)[C@@H](N)Cc1ccccc1)C(=O)N[C@@H](C)C(=O)N1CCC[C@H]1C(=O)O (H-FVAP-OH)	10
CC(C)C[C@H](NC(=O)[C@@H]1CCCN1)C(=O)N[C@@H](Cc1c[nH]c2ccccc12)C(=O)O (H-Pro-Leu-Trp-OH)	36
C[C@H](N)C(=O)N[C@@H](Cc1c[nH]cn1)C(=O)O (H-Ala-His-OH)	9000
CC[C@H](C)[C@H](N)C(=O)N[C@@H](Cc1ccc(O)cc1)C(=O)O (H-Ile-Tyr-OH)	3.7
N[C@@H](Cc1ccc(O)cc1)C(=O)N1CCC[C@H]1C(=O)O (H-Tyr-Pro-OH)	720
CC(C)[C@H](NC(=O)[C@H](C)N)C(=O)N1CCC[C@H]1C(=O)O (H-Ala-Val-Pro-OH)	340
CC(C)[C@H](N)C(=O)N[C@@H](Cc1ccc(O)cc1)C(=O)O (H-Val-Tyr-OH)	7
CC(C)C[C@H](NC(=O)[C@@H]1CCCN1C(=O)[C@@H]1CCCN1)C(=O)O (H-Pro-Pro-Leu-OH)	427
N[C@@H](Cc1ccccc1)C(=O)N1CCC[C@H]1C(=O)N1CCC[C@H]1C(=O)O (H-Phe-Pro-Pro-OH)	78
C[C@H](NC(=O)[C@@H](N)CCCNC(=N)N)C(=O)N1CCC[C@H]1C(=O)O (H-Arg-Ala-Pro-OH)	16
CC(C)[C@H](NC(=O)[C@H](C)N)C(=O)O (H-Ala-Val-OH)	300
O=C(N[C@@H](Cc1ccc(O)cc1)C(=O)N1CCC[C@H]1C(=O)O)[C@@H]1CCCN1 (H-Pro-Tyr-Pro-OH)	220
O=C(NCC(=O)N1CCC[C@H]1C(=O)O)[C@@H]1CCCN1 (H-Pro-Gly-Pro-OH)	97.3
NC(N)=NCCC[C@H](N)C(=O)N[C@@H](CO)C(=O)N1CCC[C@H]1C(=O)O (H-Arg-Ser-Pro-OH)	248
NCCCC[C@H](NC(=O)CNC(=O)[C@@H](N)Cc1ccccc1)C(=O)O (H-Phe-Gly-Lys-OH)	160
CC[C@H](C)[C@H](N)C(=O)N1CCC[C@H]1C(=O)O (H-Ile-Pro-OH)	150
CC(C)C[C@H](N)C(=O)N[C@@H](CC(N)=O)C(=O)N[C@@H](Cc1ccc(O)cc1)C(=O)O (H-Leu-Asn-Tyr-OH)	81
CC(C)C[C@H](N)C(=O)N[C@@H](CCCCN)C(=O)N1CCC[C@H]1C(=O)O (H-Leu-Lys-Pro-OH)	0.32
NCCCC[C@H](NC(=O)CN)C(=O)O (H-Gly-Lys-OH)	5400
C[C@H](N)C(=O)NCC(=O)O (H-Ala-Gly-OH)	2500
CC(C)[C@H](N)C(=O)N[C@@H](C)C(=O)N1CCC[C@H]1C(=O)O (H-Val-Ala-Pro-OH)	2
N[C@@H](Cc1ccccc1)C(=O)N1CCC[C@H]1C(=O)O (H-Phe-Pro-OH)	210
